This is an account of results in paper PMC12262901, “Natural product-mediated reaction hijacking mechanism validates Plasmodium aspartyl-tRNA synthetase as an antimalarial drug target” (PLOS Pathogens, 2025).

Assay [1] has as its target T1, native length PvAspRS (51-631) (Plasmodium vivax, UniProt A5K9Y2).
T1 construct: gene PVX_081610; residues 51-631, codon-optimised, expressed in E. coli BL21(DE3), N-terminal His-tag removed with TEV protease, homodimer
T1 sequence (A5K9Y2 51-631): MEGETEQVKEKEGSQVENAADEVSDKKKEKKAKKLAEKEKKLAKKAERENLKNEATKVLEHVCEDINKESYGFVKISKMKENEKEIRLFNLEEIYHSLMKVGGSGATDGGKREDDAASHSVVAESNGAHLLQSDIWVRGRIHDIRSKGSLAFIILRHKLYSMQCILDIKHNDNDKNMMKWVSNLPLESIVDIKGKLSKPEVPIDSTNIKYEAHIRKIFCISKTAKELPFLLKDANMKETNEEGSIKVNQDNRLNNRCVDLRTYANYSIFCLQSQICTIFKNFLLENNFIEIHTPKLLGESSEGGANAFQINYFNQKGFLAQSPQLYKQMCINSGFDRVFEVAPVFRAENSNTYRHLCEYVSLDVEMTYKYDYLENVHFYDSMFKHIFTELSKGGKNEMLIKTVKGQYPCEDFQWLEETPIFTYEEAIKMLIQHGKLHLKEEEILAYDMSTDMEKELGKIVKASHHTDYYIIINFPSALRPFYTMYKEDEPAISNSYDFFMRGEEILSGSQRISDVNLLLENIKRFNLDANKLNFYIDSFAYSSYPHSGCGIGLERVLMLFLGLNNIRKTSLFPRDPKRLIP
Put plainly: differential scanning fluorimetry after […] h incubation with substrates. Type of assay: binding. Conditions: AMS (10 or 50 µM) with 10 µM ATP, 20 µM L-Asp, 80 µM E. coli tRNA, 5 mM MgCl2, pH 8, 37 °C; reaction hijacking, covalent Asp-AMS adduct made by the enzyme; value is the Tm, not the shift. For orientation: Differential scanning fluorimetry follows unfolding on heating by fluorescence.

Assay [2] deals with T2, native length PfAspRS (49-626) (Plasmodium falciparum, UniProt Q8I2B1).
T2 construct: gene PF3D7_0102900; residues 49-626, cytoplasmic, codon-optimised, expressed in E. coli BL21(DE3), N-terminal His-tag removed with TEV protease, homodimer; observed mass 67831 Da
T2 sequence (Q8I2B1 49-626): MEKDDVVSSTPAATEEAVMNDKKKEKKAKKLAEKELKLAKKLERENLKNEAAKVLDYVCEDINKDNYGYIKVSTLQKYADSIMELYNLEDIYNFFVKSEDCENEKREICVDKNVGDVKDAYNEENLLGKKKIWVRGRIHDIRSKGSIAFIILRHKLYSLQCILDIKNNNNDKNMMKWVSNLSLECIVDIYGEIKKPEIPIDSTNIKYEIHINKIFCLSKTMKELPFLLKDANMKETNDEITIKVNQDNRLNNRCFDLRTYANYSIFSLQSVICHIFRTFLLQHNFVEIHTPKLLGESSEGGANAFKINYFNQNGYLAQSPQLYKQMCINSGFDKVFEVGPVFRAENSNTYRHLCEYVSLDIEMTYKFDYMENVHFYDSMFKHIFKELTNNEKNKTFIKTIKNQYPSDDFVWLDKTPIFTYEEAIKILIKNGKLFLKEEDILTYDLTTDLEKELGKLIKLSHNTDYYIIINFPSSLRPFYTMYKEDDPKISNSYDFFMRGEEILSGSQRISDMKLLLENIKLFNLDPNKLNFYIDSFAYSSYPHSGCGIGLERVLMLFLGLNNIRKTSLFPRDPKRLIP
The description is as above. To be noted: AMS (10 or 50 µM) with 10 µM ATP, 20 µM L-Asp, 80 µM E. coli tRNA, 5 mM MgCl2, pH 8, 37 °C; reaction hijacking, covalent Asp-AMS adduct made by the enzyme; value is the Tm, not the shift. Type of assay: binding.

Assay [3] deals with T3, HsAspRS (1-501) (Homo sapiens, UniProt P14868).
T3 construct: gene DARS1; full-length 1-501, codon-optimised, expressed in E. coli BL21(DE3), His-tag removed with TEV protease, homodimer
T3 sequence (P14868 1-501): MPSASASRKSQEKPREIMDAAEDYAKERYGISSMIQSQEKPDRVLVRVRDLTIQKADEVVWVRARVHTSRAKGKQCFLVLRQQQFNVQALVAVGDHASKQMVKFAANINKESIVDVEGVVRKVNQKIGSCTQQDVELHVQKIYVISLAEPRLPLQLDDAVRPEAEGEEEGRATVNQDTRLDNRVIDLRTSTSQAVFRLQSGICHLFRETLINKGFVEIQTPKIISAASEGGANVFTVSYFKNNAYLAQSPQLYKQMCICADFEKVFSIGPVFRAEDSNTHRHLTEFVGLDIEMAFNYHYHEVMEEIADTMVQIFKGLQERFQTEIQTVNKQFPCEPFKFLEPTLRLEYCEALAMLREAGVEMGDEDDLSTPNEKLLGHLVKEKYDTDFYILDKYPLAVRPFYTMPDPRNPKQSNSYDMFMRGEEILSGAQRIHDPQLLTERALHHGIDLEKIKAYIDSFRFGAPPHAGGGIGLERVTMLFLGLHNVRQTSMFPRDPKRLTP
Put plainly: Kinase-Glo ATP consumption assay. Type of assay: biochemical. Conditions: 10 µM ATP, 200 µM L-Asp, 160 µM E. coli tRNA, 5 mM MgCl2, pyrophosphatase, pH 8, 37 °C. (In general: Kinase-Glo reads ATP consumption through a luciferase reaction.)

Assay [4] has as its target T2, native length PfAspRS (49-626). As to the kind of experiment: Kinase-Glo ATP consumption assay. Conditions: 10 µM ATP, 200 µM L-Asp, 80 µM E. coli tRNA, 5 mM MgCl2, pyrophosphatase, pH 8, 37 °C. In kind it is biochemical.
The target in assay [5] is T1, native length PvAspRS (51-631). As to the kind of experiment: Kinase-Glo ATP consumption assay. In kind it is biochemical. Conditions: 10 µM ATP, 200 µM L-Asp, 80 µM E. coli tRNA, 5 mM MgCl2, pyrophosphatase, pH 8, 37 °C.
The target of assay [6] is T4, truncated PvAspRS (96-631) (Plasmodium vivax, UniProt A5K9Y2).
T4 construct: gene PVX_081610; residues 96-631, lacks N-terminal extension, pETM-41 vector, expressed in E. coli BL21(DE3), tag removed with TEV protease, homodimer
T4 sequence (A5K9Y2 96-631): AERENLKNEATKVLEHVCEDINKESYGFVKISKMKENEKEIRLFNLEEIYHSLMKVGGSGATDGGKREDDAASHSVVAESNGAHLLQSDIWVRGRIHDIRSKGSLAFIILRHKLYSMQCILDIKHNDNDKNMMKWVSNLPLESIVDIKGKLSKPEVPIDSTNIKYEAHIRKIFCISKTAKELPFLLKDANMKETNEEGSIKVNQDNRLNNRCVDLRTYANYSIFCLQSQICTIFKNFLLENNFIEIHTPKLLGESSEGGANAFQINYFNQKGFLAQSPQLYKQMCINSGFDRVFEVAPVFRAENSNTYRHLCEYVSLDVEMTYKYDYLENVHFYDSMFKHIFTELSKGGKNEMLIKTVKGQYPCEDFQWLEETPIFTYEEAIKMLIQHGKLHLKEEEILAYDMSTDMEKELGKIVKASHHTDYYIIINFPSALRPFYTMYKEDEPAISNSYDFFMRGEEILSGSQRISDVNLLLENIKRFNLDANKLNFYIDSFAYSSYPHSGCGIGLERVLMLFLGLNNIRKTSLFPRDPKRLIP
Put plainly: Kinase-Glo ATP consumption assay. In kind it is biochemical. To be noted: 10 µM ATP, 200 µM L-Asp, 80 µM E. coli tRNA, 5 mM MgCl2, pyrophosphatase, pH 8, 37 °C.

The target of assay [7] is T4, truncated PvAspRS (96-631). As to the kind of experiment: X-ray crystal structure, […] Å. Type of assay: binding. To be noted: active site, both chains; crystallised with ATP and L-Asp.
Assay [8] has as its target T4, truncated PvAspRS (96-631). Put plainly: X-ray crystal structure, […] Å. Conditions: active site, both chains; Mg2+ in chain B. Type of assay: binding.
Assay [9] concerns the target T3, HsAspRS (1-501). As to the kind of experiment: differential scanning fluorimetry. To be noted: 2 or 5 µM synthetic Asp-DACM, pH 8, 37 °C, 3 h. In kind it is binding.
Assay [10] deals with T2, native length PfAspRS (49-626). As to the kind of experiment: differential scanning fluorimetry. In kind it is binding. To be noted: 2 or 5 µM synthetic Asp-DACM, pH 8, 37 °C, 3 h.
Assay [11] has as its target T1, native length PvAspRS (51-631). Put plainly: differential scanning fluorimetry. Type of assay: binding. Conditions: 2 or 5 µM synthetic Asp-DACM, pH 8, 37 °C, 3 h.
For assay [12], the target named is T4, truncated PvAspRS (96-631). As to the kind of experiment: X-ray crystal structure, […] Å. Type of assay: binding. Conditions: active site of catalytic domain, both chains; possible radiation damage at the 2-Cl.
Assay [13] has as its target T1, native length PvAspRS (51-631). As to the kind of experiment: differential scanning fluorimetry after […] h incubation with substrates. Type of assay: binding. Conditions: read-out: dTm.
The target in assay [14] is native length PfAspRS (49-626), Plasmodium falciparum cytoplasmic aspartyl tRNA synthetase (P. falciparum). As to the kind of experiment: AUC; sedimentation velocity, c(s) model; PfAspRS at 1, 0.6 and 0.2 mg/mL in 50 mM Tris pH 8.0, 150 mM NaCl, 1 mM TCEP; 200,000 g, 20°C, absorbance at 290 nm.
For assay [15] the target is unchanged. As to the kind of experiment: SEC; gel filtration after removal of the His-tags; 25 mM or 50 mM Tris-HCl pH 8.0, 150 mM NaCl, 0.5 or 1 mM TCEP. (SEC sorts molecules by how far they enter the pores of the column.)
Assay [16] addresses native length PvAspRS (51-631), Plasmodium vivax aspartyl tRNA synthetase (P. vivax). Described as above.
Assay [17] has as its target T5, full-length HsAspRS (1-501), human aspartyl tRNA synthetase (human), P14868.
T5 chain: T3 sequence (P14868 1-501)
The description is as above. To be noted: remark: other sources report otherwise.

In the case of `Nc1ncnc2c1ncn2[C@@H]1O[C@H](COS(N)(=O)=O)[C@@H](O)[C@H]1O` [AMS], the Tm in assay [1] amounted to 59.5 °C; in [2] it was 57.0 °C.

In the case of `Nc1ncnc2c1ncn2[C@@H]1O[C@H](COP(=O)(O)OP(=O)(O)OP(=O)(O)O)[C@@H](O)[C@H]1O` [ATP], the “Kinase-Glo ATP consumption assay” value at HsAspRS (1-501) [3] was “Addition of EctRNA substantively increased the level of ATP consumption”; in assay [4] it was “Addition of EctRNA substantively increased the level of ATP consumption”; in assay [5] it was “Addition of EctRNA substantively increased the level of ATP consumption”; in [6], “marked increase in ATP consumption in the presence of EctRNA”.

For `Nc1ncnc2c1ncn2[C@@H]1O[C@H](COP(=O)(O)OC(=O)[C@@H](N)CC(=O)O)[C@@H](O)[C@H]1O` [Asp-AMP], the “X-ray crystal structure, 2.1 Å” value in assay [7] is “We also solved the structure of PvAspRS with the natural intermediate, Asp-AMP”.

Consider `Nc1ncnc2c1ncn2[C@@H]1O[C@H](COS(=O)(=O)NC(=O)[C@@H](N)CC(=O)O)[C@@H](O)[C@H]1O` [Asp-AMS, 5′-O-(N-L-aspartate)-sulfamoyl-adenosine], for which the “X-ray crystal structure, 1.8 Å” value in [8] was “We also solved the structure of PvAspRS with bound synthetic Asp-AMS”.

Regarding `Nc1nc(Cl)nc2c1ncn2[C@@H]1O[C@H](COS(=O)(=O)NC(=O)[C@@H](N)CC(=O)O)[C@@H](O)[C@H]1O` [Asp-DACM, 2-chloro-5′-O-[N-(L-aspartyl)-sulfamoyl] adenosine], the dTm entry at HsAspRS (1-501) [9] is “synthetic Asp-DACM increased the Tm values of PfAspRS, PvAspRS and HsAspRS”; in assay [10], “synthetic Asp-DACM increased the Tm values of PfAspRS, PvAspRS and HsAspRS”; in [11] it was “synthetic Asp-DACM increased the Tm values of PfAspRS, PvAspRS and HsAspRS”. For the same molecule, the “X-ray crystal structure, 2.4 Å” value in assay [12] is listed as “We solved the structure of PvAspRS with bound synthetic Asp-DACM”.

For `Nc1nc(Cl)nc2c1ncn2[C@@H]1O[C@H](COS(N)(=O)=O)[C@@H](O)[C@H]1O` [DACM, 5′-O-sulfamoyl-2-chloroadenosine], the ΔTm at 10 µM in [13] was found to be 19 °C.

One may read the stoichiometry N as the number of molecules, sites or subunits per partner or assembly. For “native length PfAspRS (49-626), Plasmodium falciparum cytoplasmic aspartyl tRNA synthetase (enzyme)”, the stoichiometry N in assay [14] and in assay [15] was 2 in each case.

For “native length PvAspRS (51-631), Plasmodium vivax aspartyl tRNA synthetase (enzyme)”, the stoichiometry N in [16] worked out at 2.

B1: full-length HsAspRS (1-501), human aspartyl tRNA synthetase, P14868-1 1-501 (enzyme)
chain: T3 sequence (P14868 1-501)
With B1, in assay [17], the stoichiometry N amounted to 2.
